# Measurements taken from patent publication US20240262832A1, “SMALL MOLECULE MODULATORS OF GLUCOCEREBROSIDASE ACTIVITY AND USES THEREOF” (Vanqua Bio, Inc., priority 2021, published 2024).
# Biological target: T1, GCase (Homo sapiens, UniProt P04062)
# T1 construct: endogenous in cells; host or cells: HeLa cells
# T1 sequence (P04062 40-536): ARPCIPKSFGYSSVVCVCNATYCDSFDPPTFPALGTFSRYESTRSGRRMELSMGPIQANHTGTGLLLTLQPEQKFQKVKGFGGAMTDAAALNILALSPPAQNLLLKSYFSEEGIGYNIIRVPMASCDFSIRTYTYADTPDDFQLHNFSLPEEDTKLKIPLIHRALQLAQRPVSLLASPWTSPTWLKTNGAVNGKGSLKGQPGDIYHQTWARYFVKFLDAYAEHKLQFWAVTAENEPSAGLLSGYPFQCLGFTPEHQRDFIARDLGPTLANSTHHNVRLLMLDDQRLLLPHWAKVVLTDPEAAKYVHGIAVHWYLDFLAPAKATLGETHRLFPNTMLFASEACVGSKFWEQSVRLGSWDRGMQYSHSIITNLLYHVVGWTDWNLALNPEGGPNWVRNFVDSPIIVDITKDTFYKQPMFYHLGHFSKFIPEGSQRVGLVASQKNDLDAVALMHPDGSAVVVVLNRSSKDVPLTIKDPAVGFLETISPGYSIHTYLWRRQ
# Test: activation of GCase in a live cell PFB assay in HELA cells
# Type: cell-based
row,Compound,EC50 [µM]
1,C[C@H](Oc1ccccc1C(F)(F)F)[C@@H]1CCCN(c2cnc3cnn(CC(F)F)c3n2)C1 (racemic) [Compound 5c],< 10
2,"CC1CC(COc2cccnc2C(F)(F)F)CN(c2cnc3cnn(CC(F)F)c3n2)C1 (single isomer, unassigned) [Compound 47b]",< 10
3,"C[C@H]1C[C@@H](COc2cccnc2C(F)(F)F)CN(c2cnc3cnn(CC4COC4)c3n2)C1 (single isomer, unassigned) [Compound 233b]",< 10
4,"CC1CC(COc2cccnc2C(F)(F)F)CN(C(=O)c2ccc3cc[nH]c3c2)C1 (single isomer, unassigned) [Compound 252b]",< 10
5,"CC1CC(COc2cccnc2C(F)(F)F)CN(c2cncc(-c3nncs3)n2)C1 (single isomer, unassigned) [Compound 262b]",< 10
6,"FC(F)Cn1ncc2ncc(N3C[C@@H]4[C@@H](COc5cccnc5C(F)(F)F)[C@@H]4C3)nc21 [Compound 1, (1R,5S,6S)-3-[1-(2,2-difluoroethyl)-1H-pyrazolo[3,4-b]pyrazin-6-yl]-6-({[2-(trifluoromethyl)pyridin-3-yl]oxy}methyl)-3-azabicyclo[3.1.0]hexane]",< 10
7,"O=C(c1nnc(C2(c3ccccc3)CCCC2)o1)N1CCCC(COc2ccccc2)C1 (stereo not drawn) [Compound 3, (3-(phenoxymethyl)piperidin-1-yl)(5-(1-phenylcyclopentyl)-1,3,4-oxadiazol-2-yl)methanone]",10 to 50
8,"C[C@@H](Oc1ccccc1C(F)(F)F)[C@@H]1CCCN(c2cnc3cnn(CC(F)F)c3n2)C1 [Compound 5b, 1-(2,2-difluoroethyl)-6-((R)-3-((R)-1-(2-(trifluoromethyl)phenoxy)ethyl)piperidin-1-yl)-1H-pyrazolo[3,4-b]pyrazine]",10 to 50
9,O=C(N1CCC(COc2cccc(C(F)(F)F)n2)C1)C1(c2ccccc2)CCOCC1 (stereo not drawn) [Compound 6],< 10
10,O=C(Cc1c[nH]c2ccccc12)N1CCC(Oc2ccc(C(F)(F)F)cn2)CC1 [Compound 7],10 to 50
11,O=C(c1cc(=O)c2cc(Cl)ccc2o1)N1CCCC(COc2ccccc2)C1 (stereo not drawn) [Compound 8],10 to 50
12,CCCC(C(=O)N1CCCC(COc2ccccc2)C1)n1nccc1C1CC1 (stereo not drawn) [Compound 9],10 to 50
13,O=C(N1CCCC(COc2ccccc2)C1)C12CCC(C(F)F)(CC1)C2 (stereo not drawn) [Compound 10],10 to 50
14,O=C(c1ccn(Cc2ccccc2)n1)N1CCCC(COc2ccccc2)C1 (stereo not drawn) [Compound 11],10 to 50
15,COc1ccc(OCCCC(=O)N2CCCC(COc3ccccc3)C2)cc1 (stereo not drawn) [Compound 12],10 to 50
16,"FC(F)Cn1ncc2ncc(N3CCCC(COc4cccnc4C(F)(F)F)C3)nc21 (stereo not drawn) [Compound 13, 3-({1-[1-(2,2-difluoroethyl)pyrazolo[3,4-b]pyrazin-6-yl]piperidin-3-yl}methoxy)-2-(trifluoromethyl)pyridine]",< 10
17,"Cc1ccccc1CCC1CCCN(C(=O)c2cnn(-c3ccccc3)n2)C1 (stereo not drawn) [Compound 15, (3-(2-methylphenethyl)piperidin-1-yl)(2-phenyl-2H-1,2,3-triazol-4-yl)methanone]",10 to 50
18,"CCn1ncc2ncc(N3CCCC(COc4ccccc4C(F)(F)F)C3)nc21 (stereo not drawn) [Compound 16, 1-{1-ethylpyrazolo[3,4-b]pyrazin-6-yl}-3-[2-(trifluoromethyl)phenoxymethyl]piperidine]",10 to 50
19,"O=C(c1ccc2ccn(CC3COC3)c2c1)N1CCC[C@H](CCc2ccccc2C(F)(F)F)C1 [Compound 18, 1-[(oxetan-3-yl)methyl]-6-[(3S)-3-{2-[2-(trifluoromethyl)phenyl]ethyl}piperidine-1-carbonyl]-1H-indole]",10 to 50
20,"O=C(c1ccc2ccn(C3COC3)c2c1)N1CCC[C@H](CCc2ccccc2C(F)(F)F)C1 [Compound 19, 1-(oxetan-3-yl)-6-[(3S)-3-{2-[2-(trifluoromethyl)phenyl]ethyl}piperidine-1-carbonyl]-1H-indole]",10 to 50

row,Compound,EC50 [µM]
1,"FC(F)Cn1ncc2ncc(N3CCC(F)(F)C(COc4cccnc4C(F)(F)F)C3)nc21 (stereo not drawn) [Compound 20, 3-({1-[1-(2,2-difluoroethyl)-1H-pyrazolo[3,4-b]pyrazin-6-yl]-4,4-difluoropiperidin-3-yl}methoxy)-2-(trifluoromethyl)pyridine]",< 10
2,"FC(F)Cn1ncc2ncc(N3CC(COc4cccnc4C(F)(F)F)CC(F)(F)C3)nc21 (stereo not drawn) [Compound 21, 3-({1-[1-(2,2-difluoroethyl)-1H-pyrazolo[3,4-b]pyrazin-6-yl]-5,5-difluoropiperidin-3-yl}methoxy)-2-(trifluoromethyl)pyridine]",10 to 50
3,"O=C(c1cnn(-c2ccccc2F)n1)N1CCCC(COc2ccccc2)C1 (stereo not drawn) [Compound 22, (2-(2-Fluorophenyl)-2H-1,2,3-triazol-4-yl)(3-(phenoxymethyl)piperidin-1-yl)methanone]",10 to 50
4,"Cc1ccccc1OCC1CCCN(c2cnc3cnn(-c4nncs4)c3n2)C1 (stereo not drawn) [Compound 23, 2-(6-(3-((o-Tolyloxy)methyl)piperidin-1-yl)-1H-pyrazolo[3,4-b]pyrazin-1-yl)-1,3,4-thiadiazole]",10 to 50
5,"CC(C)(c1ccccc1)c1nnc(C(=O)N2CCCC(COc3ccccc3)C2)o1 (stereo not drawn) [Compound 24, (3-(Phenoxymethyl)piperidin-1-yl)(5-(2-phenylpropan-2-yl)-1,3,4-oxadiazol-2-yl)methanone]",10 to 50
6,"Cc1ccccc1OCC1CCCN(C(=O)c2cnn3c(-c4ccccc4)ccc(Cl)c23)C1 (stereo not drawn) [Compound 25, (4-Chloro-7-phenylpyrazolo[1,5-a]pyridin-3-yl)(3-((o-tolyloxy)methyl)piperidin-1-yl)methanone]",10 to 50
7,"CC(Oc1cccnc1C(F)(F)F)C1CCCN(c2cnc3cnn(CC(F)F)c3n2)C1 (stereo not drawn) [Compound 26, 1-(2,2-Difluoroethyl)-6-(3-(1-((2-(trifluoromethyl)pyridin-3-yl)oxy)ethyl)piperidin-1-yl)-1H-pyrazolo[3,4-b]pyrazine]",< 10
8,"CCn1c(-c2nncs2)nc2ncc(N3CCCC(COc4ccccc4C)C3)nc21 (stereo not drawn) [Compound 30, 2-(1-Ethyl-6-(3-((o-tolyloxy)methyl)piperidin-1-yl)-1H-imidazo[4,5-b]pyrazin-2-yl)-1,3,4-thiadiazole]",> 100
9,"CC1CCC(COc2cccnc2C(F)(F)F)CN1c1cnc2cnn(CC(F)F)c2n1 (stereo not drawn) [Compound 31, 1-(2,2-Difluoroethyl)-6-(2-methyl-5-(((2-(trifluoromethyl)pyridin-3-yl)oxy)methyl)piperidin-1-yl)-1H-pyrazolo[3,4-b]pyrazine]",< 10
10,"Cn1c(-c2ccccc2)cc2ncc(N3CCCC(COc4cccnc4C(F)(F)F)C3)nc21 (stereo not drawn) [Compound 33, 5-Methyl-6-phenyl-3-(3-(((2-(trifluoromethyl)pyridin-3-yl)oxy)methyl)piperidin-1-yl)-5H-pyrrolo[2,3-b]pyrazine]",10 to 50
11,"FC(F)Cn1ncc2ncc(N3CCCC(F)(COc4cccnc4C(F)(F)F)C3)nc21 (stereo not drawn) [Compound 35, 3-({1-[1-(2,2-Difluoroethyl)-1H-pyrazolo[3,4-b]pyrazin-6-yl]-3-fluoropiperidin-3-yl}methoxy)-2-(trifluoromethyl)pyridine]",10 to 50
12,"FC(F)Cn1ncc2ncc(N3C[C@@H]4[C@@H](COc5cccc(C(F)(F)F)n5)[C@@H]4C3)nc21 [Compound 36, (1R,5S,6S)-3-[1-(2,2-Difluoroethyl)-1H-pyrazolo[3,4-b]pyrazin-6-yl]-6-({[6-(trifluoromethyl)pyridin-2-yl]oxy}methyl)-3-azabicyclo[3.1.0]hexane]",10 to 50
13,"Cc1ccccc1OCC1CCCN(C(=O)c2cn(C)c3ccn(-c4ccccc4)c(=O)c23)C1 (stereo not drawn) [Compound 38, 1-Methyl-5-phenyl-3-(3-((o-tolyloxy)methyl)piperidine-1-carbonyl)-1,5-dihydro-4H-pyrrolo[3,2-c]pyridin-4-one]",10 to 50
14,"FC(F)(F)c1ncccc1OC[C@@H]1[C@H]2CN(c3cncc(-c4nncs4)n3)C[C@@H]12 [Compound 40, (1R,5S,6S)-3-[6-(1,3,4-Thiadiazol-2-yl)pyrazin-2-yl]-6-({[2-(trifluoromethyl)pyridin-3-yl]oxy}methyl)-3-azabicyclo[3.1.0]hexane]",10 to 50
15,"CC(=O)N1CCC(c2cc3nc(N4CCCC(COc5ccccc5)C4)cnc3n2C)CC1 (stereo not drawn) [Compound 41, 1-(4-{5-Methyl-2-[3-(phenoxymethyl)piperidin-1-yl]-5H-pyrrolo[2,3-b]pyrazin-6-yl}piperidin-1-yl)ethan-1-one]",> 100
16,"FC(F)Cn1ncc2ncc(N3CCC(F)(F)C(COc4cccc(C(F)(F)F)n4)C3)nc21 (stereo not drawn) [Compound 42, 2-({1-[1-(2,2-Difluoroethyl)-1H-pyrazolo[3,4-b]pyrazin-6-yl]-4,4-difluoropiperidin-3-yl}methoxy)-6-(trifluoromethyl)pyridine]",10 to 50
17,"FC(F)Cn1ncc2ncc(N3CCCC(F)(COc4cccc(C(F)(F)F)n4)C3)nc21 (stereo not drawn) [Compound 43, 2-({1-[1-(2,2-Difluoroethyl)-1H-pyrazolo[3,4-b]pyrazin-6-yl]-3-fluoropiperidin-3-yl}methoxy)-6-(trifluoromethyl)pyridine]",10 to 50
18,"O=C(Cc1ccnn(-c2ccccc2)c1=O)N1CCCC(COc2ccccc2)C1 (stereo not drawn) [Compound 44, 4-(2-Oxo-2-(3-(phenoxymethyl)piperidin-1-yl)ethyl)-2-phenylpyridazin-3(2H)-one]",> 100
19,"C[C@H](Oc1cccnc1C(F)(F)F)[C@H]1CCCN(c2cncc(-c3nncs3)n2)C1 [Compound 45a, 2-(6-((S)-3-((S)-1-((2-(Trifluoromethyl)pyridin-3-yl)oxy)ethyl)piperidin-1-yl)pyrazin-2-yl)-1,3,4-thiadiazole]",< 10
